Among the data in the Kinase Knowledgebase extract (Sharma et al. 2016) are IC50 values, retold here.

For assay [1], the target named is CDK2 (human) (UniProt P24941). Description: Cell-Based Assay.
Assay [2] addresses CDK2 (UniProt P24941). Description: Enzyme Assay.

By IC50 is commonly meant the midpoint of a concentration-inhibition curve. Take `Fc1ccc2c(c1)C(c1ccccc1F)=Nc1c[nH]nc1N2`: the figures for the half-maximal inhibitory concentration (IC50) in assay [1] (sw480) and in assay [2] were 10 to 30 µM and 1 to 9.99 µM, respectively. Take `CC(C)Cc1[nH]nc2c1N=C(c1ccccc1Cl)c1cc([N+](=O)[O-])ccc1N2`: in assay [2], the concentration for half-maximal inhibition (IC50) lay within 1 to 9.99 µM. Turning to `O=[N+]([O-])c1ccc2c(c1)C(c1ccccc1Cl)=Nc1c(n[nH]c1-c1ccccc1[N+](=O)[O-])N2`, the IC50 in assay [2] lay in the range of 10 to 30 µM. The molecule `O=C(O)c1ccc2c(c1)C(c1ccccc1)=Nc1c[nH]nc1N2` registered a concentration for half-maximal inhibition (IC50) in assay [2] of 1 to 9.99 µM. `COC(=O)c1ccc2c(c1)C(c1ccccc1)=Nc1c[nH]nc1N2` gave a 50% inhibitory concentration (IC50) in assay [2] of 1 to 9.99 µM. Take `Fc1ccccc1C1=Nc2c[nH]nc2Nc2ccccc21`: the IC50 fell in the range of 10 to 30 µM in assay [1] (hct 116), 10 to 30 µM in assay [1] (sw480) and 1 to 9.99 µM in assay [2].

Regarding `Nc1ccc2c(c1)C(c1ccccc1Cl)=Nc1c[nH]nc1N2`, the IC50 lay within 10 to 30 µM in assay [1] (hct 116), 10 to 30 µM in assay [1] (mda-mb-435), 10 to 30 µM in assay [1] (sw480) and 1 to 9.99 µM in assay [2]. `CCc1ccc(-c2[nH]nc3c2N=C(c2ccccc2Cl)c2cc([N+](=O)[O-])ccc2N3)o1`: the IC50 in assay [2] lay within 1 to 9.99 µM. Turning to `O=[N+]([O-])c1ccc2c(c1)C(c1ccccc1Cl)=Nc1c(n[nH]c1-c1cc3ccccc3[nH]1)N2`, the IC50 lay in the range of 10 to 30 µM in assay [1] (hct 116), 10 to 30 µM in assay [1] (sw480) and 1 to 9.99 µM in assay [2]. On to `CN(C)c1ccc(-c2[nH]nc3c2N=C(c2ccccc2Cl)c2cc([N+](=O)[O-])ccc2N3)cc1`, for which the IC50 in assay [2] was in the range of 1 to 9.99 µM.

`O=[N+]([O-])c1ccc2c(c1)C(c1ccccc1Cl)=Nc1c(n[nH]c1-c1ccccc1C(F)(F)F)N2`: the IC50 in assay [1] (sw480) and in assay [2] was 10 to 30 µM each time. `Fc1ccccc1C1=Nc2c[nH]nc2Nc2ccc(Cl)cc21`: the half-maximal inhibitory concentration (IC50) in assay [2] is 1 to 9.99 µM. In turn, `O=[N+]([O-])c1ccc2c(c1)C(c1ccccc1)=Nc1c(n[nH]c1-c1ncc[nH]1)N2` returned an IC50 in assay [2] of 1 to 9.99 µM. Turning to `COc1ccccc1-c1[nH]nc2c1N=C(c1ccccc1Cl)c1cc([N+](=O)[O-])ccc1N2`, the IC50 in assay [2] lay in the range of 10 to 30 µM. In turn, `Cc1ccc(-c2[nH]nc3c2N=C(c2ccccc2Cl)c2cc([N+](=O)[O-])ccc2N3)cc1` came in with a half-maximal inhibitory concentration (IC50) in assay [2] of 1 to 9.99 µM.

In the case of `O=[N+]([O-])c1ccc2c(c1)C(c1ccccc1)=Nc1c(n[nH]c1-c1ccc3c(c1)OCCO3)N2`, the IC50 in assay [2] is 10 to 30 µM. For the molecule `O=[N+]([O-])c1ccc2c(c1)C(c1ccccc1Cl)=Nc1c[nH]nc1N2`, the IC50 lay within 10 to 30 µM in assay [1] (hct 116), 10 to 30 µM in assay [1] (mda-mb-435) and 1.1 to 9.99 µM in assay [1] (sw480).

In the case of `Cc1[nH]nc2c1N=C(c1ccccc1F)c1cc(C(N)=O)ccc1N2`, in assay [1] (sw480), the IC50 lay in the range of 0.01 to 1 µM. Consider `O=[N+]([O-])c1ccc2c(c1)C(c1ccccc1Cl)=Nc1c(n[nH]c1-c1cncc3ccccc13)N2`, for which the IC50 in assay [1] (hct 116) was in the range of 10 to 30 µM. Turning to `Cn1cccc1-c1[nH]nc2c1N=C(c1ccccc1Cl)c1cc([N+](=O)[O-])ccc1N2`, in assay [2], the IC50 lay in the range of 1 to 9.99 µM.

`N#Cc1cccc(-c2[nH]nc3c2N=C(c2ccccc2Cl)c2cc([N+](=O)[O-])ccc2N3)c1` gave an IC50 in assay [2] of 1 to 9.99 µM. With `O=[N+]([O-])c1ccc2c(c1)C(c1ccccc1F)=Nc1c[nH]nc1N2`, the IC50 fell in the range of 10 to 30 µM in assay [1] (hct 116), 10 to 30 µM in assay [1] (mda-mb-435) and 1.1 to 9.99 µM in assay [1] (sw480). `Cc1[nH]nc2c1N=C(c1ccccc1Cl)c1cc(NS(C)(=O)=O)ccc1N2`: the half-maximal inhibitory concentration (IC50) in assay [1] (mda-mb-435) and in assay [1] (sw480) was 0.01 to 1 µM in each case. The molecule `Cc1[nH]nc2c1N=C(c1ccccc1F)c1cc(F)ccc1N2` displayed an IC50 in assay [1] (sw480) of 0.01 to 1 µM. As to `CN(C)Cc1[nH]nc2c1N=C(c1ccccc1Cl)c1cc([N+](=O)[O-])ccc1N2`, the IC50 in assay [1] (mda-mb-435) fell in the range of 10 to 30 µM.

For the molecule `C=CC(=O)Nc1ccc2c(c1)C(c1ccccc1Cl)=Nc1c(n[nH]c1C)N2`, the IC50 in assay [1] (mda-mb-435) and in assay [1] (sw480) was 0.01 to 1 µM in each case.

In the case of `COc1ccc2c(c1)C(c1ccccc1Cl)=Nc1c(n[nH]c1C)N2`, the IC50 in assay [1] (mda-mb-435) and in assay [1] (sw480) was 1.1 to 9.99 µM each time. Molecule `O=[N+]([O-])c1ccc2c(c1)C(c1ccccc1Cl)=Nc1c(n[nH]c1-c1cccc(O)c1)N2` had an IC50 in assay [2] of 1 to 9.99 µM. Molecule `CCOc1cccc(-c2[nH]nc3c2N=C(c2ccccc2Cl)c2cc([N+](=O)[O-])ccc2N3)c1` displayed an IC50 in assay [2] of 1 to 9.99 µM. As for `O=C(NCCO)c1ccc2c(c1)C(c1ccccc1F)=Nc1c[nH]nc1N2`, the IC50 in assay [1] (hct 116) was 10 to 30 µM.

As for `CC(C)c1[nH]nc2c1N=C(c1ccccc1Cl)c1cc(N)ccc1N2`, the IC50 in assay [1] (mda-mb-435) is 1.1 to 9.99 µM. In assay [2], `O=[N+]([O-])c1ccc2c(c1)C(c1ccccc1Cl)=Nc1c(n[nH]c1-c1cccc(Oc3ccccc3)c1)N2` had an IC50 of 10 to 30 µM. As to `Cc1[nH]nc2c1N=C(c1ccccc1)c1cc(F)ccc1N2`, the results for the IC50 in assay [1] (mda-mb-435) and in assay [1] (sw480) were 0.01 to 1 µM and 1.1 to 9.99 µM, respectively.

On to `CCc1[nH]nc2c1N=C(c1ccccc1Cl)c1cc([N+](=O)[O-])ccc1N2`, for which the IC50 in assay [1] (hct 116), in assay [1] (mda-mb-435) and in assay [1] (sw480) was 0.01 to 1 µM each time. As to `Cc1[nH]nc2c1N=C(c1ccccc1Cl)c1cc(N)ccc1N2`, the IC50 in assay [1] (mda-mb-435) and in assay [1] (sw480) was 0.01 to 1 µM throughout. Turning to `O=[N+]([O-])c1ccc2c(c1)C(c1ccccc1Cl)=Nc1c(n[nH]c1C(F)(F)F)N2`, the IC50 in assay [1] (mda-mb-435) fell in the range of 1.1 to 9.99 µM.
